Some test systems named below: M14 melanoma; SF-295 CNS; NCI-H23 lung; CAKI-1 renal; SN12C renal; U251 CNS; 786-0 renal; K-562 leukemia; SNB-19 CNS; MOLT-4 leukemia.
Experiment in all cases: NCI tumour cell line growth inhibition, 48 h

From PubChem BioAssay (NCI) come the findings set out here.

Values joined by “and” are separate entries in the source; they are usually repeats but may differ in a detail not shown here. Identical values can stand only once.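 A five-concentration, 48-hour dose response in 96-well plates underlies each endpoint, interpolated linearly between surrounding concentrations. At the GI50, growth is halved. Definition used: TGI = concentration required for complete inhibition of growth.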

Consider `CCCCCCCCCCN1CCC(N2CCCCC2)CC1`, for which the GI50 is 1.72 µM in the experiment with M14 melanoma; 1.96 µM with SF-295 CNS; 3.35 µM in the experiment on NCI-H23 lung; 1.66 µM in the experiment with CAKI-1 renal; 4.81 µM in the experiment on SN12C renal; 1.51 µM in the experiment with U251 CNS. The GI50 is 2.82 µM with 786-0 renal, 1.28 µM in the experiment with K-562 leukemia, 3.95 µM with SNB-19 CNS and 2.09 µM in the experiment with MOLT-4 leukemia. The TGI with SF-295 CNS amounted to 4.2 µM; in the experiment on NCI-H23 lung, 14.5 µM; in the experiment with CAKI-1 renal, 3.94 µM; in the experiment on SN12C renal it was 19.3 µM; with U251 CNS it was 4.47 µM; in the experiment on 786-0 renal it was 15.9 µM. Further, the TGI was found to be 3.44 µM with K-562 leukemia, 14.5 µM in the experiment on SNB-19 CNS and 6.65 µM with MOLT-4 leukemia.
As for `CCCCCCCCCCCCOC1C(C(CC(=O)NCCN2CCCC2)NS(=O)(=O)c2cc(Cl)cc(Cl)c2)OC2OC(C)(C)OC21` (centres undefined), the GI50 was 1.71 µM with M14 melanoma; 1.9 µM in the experiment on SF-295 CNS; 2.21 µM in the experiment on NCI-H23 lung; 1.79 µM with CAKI-1 renal; 1.76 µM in the experiment on SN12C renal; 1.92 µM in the experiment with U251 CNS. The GI50 is 1.68 µM in the experiment on 786-0 renal; 2.34 µM in the experiment with K-562 leukemia; 2.2 µM and 1.37 µM with SNB-19 CNS; 2.03 µM in the experiment on MOLT-4 leukemia. Also, the TGI in the experiment on M14 melanoma was determined as 3.45 µM; in the experiment on SF-295 CNS, 4.69 µM; with NCI-H23 lung, 4.76 µM; with CAKI-1 renal it was 3.4 µM; in the experiment on SN12C renal it was 3.23 µM; in the experiment on U251 CNS it was 3.58 µM. Moreover, the TGI in the experiment on 786-0 renal was 3.27 µM; with K-562 leukemia, 4.85 µM; in the experiment on SNB-19 CNS it was 4.36 µM and 2.81 µM; with MOLT-4 leukemia, 4.33 µM.
Regarding `CC(C(=O)n1c2ccccc2c2ccccc21)N(c1ccccc1)c1ccccc1` (centres undefined), the TGI was found to be 30.5 µM in the experiment on M14 melanoma; 37.1 µM with SF-295 CNS; 34.6 µM in the experiment with NCI-H23 lung; 27.7 µM with CAKI-1 renal; 41.4 µM in the experiment on SN12C renal; 34.7 µM in the experiment with U251 CNS. The TGI was 30.2 µM in the experiment on 786-0 renal, 40.7 µM in the experiment with K-562 leukemia, greater than 100 µM with SNB-19 CNS and 29.3 µM in the experiment on MOLT-4 leukemia.
Take `O=C(OCc1ccc2c(Cl)cc(Cl)c(O)c2n1)N1CCN(C(=O)c2cc3cc(F)ccc3[nH]2)CC1`: the GI50 in the experiment with M14 melanoma was 0.675 µM; in the experiment on SF-295 CNS, 9.49 µM; with NCI-H23 lung it was 2.25 µM; in the experiment on CAKI-1 renal, 0.905 µM; with SN12C renal, 1.15 µM; in the experiment on U251 CNS it was 2.55 µM. The GI50 is 4.3 µM in the experiment with 786-0 renal, 0.825 µM in the experiment on K-562 leukemia, 4.13 µM with SNB-19 CNS and 1.02 µM in the experiment with MOLT-4 leukemia. Also, the TGI with M14 melanoma, in the experiment on SF-295 CNS, in the experiment on NCI-H23 lung, with CAKI-1 renal, in the experiment with SN12C renal and with U251 CNS was greater than 100 µM each time. In addition, the TGI in the experiment on 786-0 renal, in the experiment with K-562 leukemia, in the experiment with SNB-19 CNS and in the experiment on MOLT-4 leukemia was greater than 100 µM throughout.
In the case of `CO/N=C(/C)c1cccc(Nc2cc(-c3ccccc3)nc3ccc(OC)cc23)c1`, the GI50 is 6.92 µM with M14 melanoma; 3.82 µM in the experiment with SF-295 CNS; 6.08 µM in the experiment with NCI-H23 lung; 3.18 µM with CAKI-1 renal; 2.9 µM with SN12C renal; 6.62 µM with U251 CNS. Moreover, the GI50 in the experiment on 786-0 renal is 3.18 µM; in the experiment with K-562 leukemia it was 2.72 µM; in the experiment with SNB-19 CNS, 35.2 µM; in the experiment on MOLT-4 leukemia, 3.05 µM. Besides, the TGI was found to be 25.3 µM in the experiment on M14 melanoma; 21.1 µM with SF-295 CNS; 27.4 µM in the experiment on NCI-H23 lung; 10.9 µM with CAKI-1 renal; 9.67 µM with SN12C renal; 23.7 µM with U251 CNS. For the same compound, the TGI with 786-0 renal was 13.3 µM; with K-562 leukemia, greater than 100 µM; with SNB-19 CNS, greater than 100 µM; in the experiment on MOLT-4 leukemia, greater than 100 µM.
Take `COc1ccc2c3c(Nc4ccc(/C(C)=N/O)cc4)[nH]c4ccccc4c-3c(N=O)c2c1`: the GI50 with M14 melanoma was 2.44 µM; with SF-295 CNS, 9.11 µM; in the experiment on NCI-H23 lung, 4.59 µM; with CAKI-1 renal, 2.65 µM; with SN12C renal it was 7.06 µM; in the experiment with U251 CNS, 2.31 µM. Further, the GI50 was 13.4 µM with 786-0 renal, 0.665 µM with K-562 leukemia, 22.9 µM in the experiment with SNB-19 CNS and 0.951 µM with MOLT-4 leukemia. Also, the TGI in the experiment on M14 melanoma came to 5.64 µM; in the experiment with SF-295 CNS, 38.9 µM; with NCI-H23 lung, 18.2 µM; with CAKI-1 renal it was 6.01 µM; in the experiment with SN12C renal it was 23 µM; in the experiment on U251 CNS, 12.9 µM. Besides, the TGI with 786-0 renal was 28.2 µM; in the experiment on K-562 leukemia, 2.8 µM; in the experiment with SNB-19 CNS, 51.9 µM; with MOLT-4 leukemia, 2.84 µM.
Turning to `O=C(CSC(c1ccccc1)c1ccccc1)N/N=C/c1ccco1`, the GI50 with M14 melanoma is 1.49 µM; in the experiment with SF-295 CNS, 2.4 µM; in the experiment on NCI-H23 lung, 1.6 µM; in the experiment on CAKI-1 renal, 4.7 µM; in the experiment with SN12C renal it was 17.2 µM; in the experiment with U251 CNS it was 1.77 µM. The GI50 with 786-0 renal was 1.83 µM; in the experiment on K-562 leukemia, 2.16 µM; with SNB-19 CNS, 36 µM; in the experiment with MOLT-4 leukemia it was 1.64 µM. The TGI in the experiment on M14 melanoma came out at 2.69 µM; in the experiment on SF-295 CNS it was 12.5 µM; in the experiment on NCI-H23 lung it was 4.46 µM; in the experiment on CAKI-1 renal it was 23.2 µM; in the experiment with SN12C renal it was 35.7 µM; in the experiment on U251 CNS it was 3.21 µM. The TGI with 786-0 renal is 9.05 µM; with K-562 leukemia it was 8.74 µM; in the experiment with SNB-19 CNS, greater than 100 µM; in the experiment on MOLT-4 leukemia, 4.48 µM.
Regarding `COC(=O)c1cccc2cccc(C(=O)Nc3ccc(Cl)cc3)c12`, the TGI in the experiment with M14 melanoma, in the experiment on SF-295 CNS, in the experiment on NCI-H23 lung, in the experiment with CAKI-1 renal, in the experiment with SN12C renal and in the experiment with U251 CNS was greater than 100 µM in each case. Besides, the TGI was greater than 100 µM in the experiment with 786-0 renal, greater than 33 µM with K-562 leukemia, greater than 100 µM in the experiment on SNB-19 CNS and greater than 100 µM in the experiment on MOLT-4 leukemia.
As for `OCC(O)CNc1ccnc2cc(Cl)ccc12` (centres undefined), the TGI in the experiment on M14 melanoma, in the experiment on SF-295 CNS, in the experiment with NCI-H23 lung, in the experiment with CAKI-1 renal, with SN12C renal and in the experiment on U251 CNS was greater than 100 µM each time. For the same compound, the TGI in the experiment on 786-0 renal, in the experiment with K-562 leukemia, in the experiment on SNB-19 CNS and with MOLT-4 leukemia was greater than 100 µM in each case.
